Results from patent US6838456B2, “Condensed pyridoindole derivatives” (Lilly ICOS LLC, priority 2000, dated 2005).

Target: human recombinant PDE5 (Homo sapiens, UniProt O76074)
Test: Inhibitory effect on cGMP-PDE (one-step assay, 8-[H3]-cGMP)
Format: biochemical
Details: in vitro
Protocol: The compounds of structural formula (I) were tested for an ability to inhibit PDE5. The ability of a compound to inhibit PDE5 activity is related to the IC50 value for the compound, i.e., the concentration of inhibitor required for 50% inhibition of enzyme activity. The IC50 value for compounds of structural formula (I) were determined using recombinant human PDE5.
cGMP-PDE activity of compounds of the present invention was measured using a one-step assay adapted from Wells et al., Biochim. Biophys. Acta, 384, 430 (1975). The reaction medium contained 50 mM Tris-HCl, pH 7.5, 5 mM magnesium acetate, 250 μg/ml 5′-Nucleotidase, 1 mM EGTA, and 0.15 μM 8-[H^3]-cGMP. Unless otherwise indicated, the enzyme used was a human recombinant PDE5 (ICOS Corp., Bothell, Wash.).
Compounds of the invention were dissolved in DMSO finally present at 2% in the assay.

SMILES	IC50 [nM]
CCOC(=O)c1cc(C(C)C)n2c1Cc1c([nH]c3ccccc13)C2c1ccc2c(c1)OCO2 (stereo not drawn) [Example 19]	460
CN(C)CCNC(=O)c1ccn2c1Cc1c([nH]c3ccccc13)C2c1ccc2c(c1)OCO2 (stereo not drawn) [Example 26]	110
CCOC(=O)c1cc(CNCc2ccccc2)n2c1Cc1c([nH]c3ccccc13)C2c1ccc2c(c1)OCO2 (stereo not drawn) [Example 6]	10
O=C(NCc1cccc[n+]1[O-])c1ccn2c1Cc1c([nH]c3ccccc13)C2c1ccc2c(c1)OCO2 (stereo not drawn) [Example 20]	1.5
NCCNC(=O)c1ccn2c1Cc1c([nH]c3ccccc13)C2c1ccc2c(c1)OCO2 (stereo not drawn) [Example 30]	10
CCOC(=O)c1cc(CN)n2c1Cc1c([nH]c3ccccc13)C2c1ccc2c(c1)CCO2 (stereo not drawn) [Example 8]	40
O=C(NCc1cccnc1)c1ccn2c1Cc1c([nH]c3ccccc13)C2c1ccc2c(c1)OCO2 (stereo not drawn) [Example 25]	5.9
CN(C(=O)O)C(=O)c1ccn2c1Cc1c([nH]c3ccccc13)C2c1ccc2c(c1)OCO2 (stereo not drawn) [Example 29]	3.8
O=C(O)c1ccn2c1Cc1c([nH]c3ccccc13)C2c1ccc2c(c1)OCO2 (stereo not drawn) [Example 36]	10
CCOC(=O)c1ccn2c1Cc1c([nH]c3ccccc13)C2c1ccc2c(c1)OCO2 (stereo not drawn) [Example 35]	5.5
O=C(NCCN1CCOCC1)c1ccn2c1Cc1c([nH]c3ccccc13)C2c1ccc2c(c1)OCO2 (stereo not drawn) [Example 31]	20
CCOC(=O)c1cc(C=O)n2c1Cc1c([nH]c3ccccc13)C2c1ccc2c(c1)OCO2 (stereo not drawn) [Example 23]	3.9
CCOC(=O)c1c(C(=O)O)c(CC)n2c1Cc1c([nH]c3ccccc13)C2c1ccc2c(c1)OCO2 (stereo not drawn) [Example 13]	5.9
c1ccc2c3c([nH]c2c1)C(c1ccc2c(c1)OCO2)n1cccc1C3 (stereo not drawn) [Example 10]	140
O=C(NCCn1cccn1)c1ccn2c1Cc1c([nH]c3ccccc13)C2c1ccc2c(c1)OCO2 (stereo not drawn) [Example 17]	8
O=C(NCCc1ccccn1)c1ccn2c1Cc1c([nH]c3ccccc13)C2c1ccc2c(c1)OCO2 (stereo not drawn) [Example 24]	2.1
CCOC(=O)c1c(C(=O)OCC)c2n(c1C)[C@H](c1ccc3c(c1)OCO3)c1[nH]c3ccccc3c1C2 [Example 1, (R)-5-Benzo[1,3]dioxol-5-yl-3-methyl-6,11-dihydro-5H-indolizino[6,7-b]indole-1,2-dicarboxylic acid diethyl ester]	5.6

Further molecules by falling IC50, results first:

IC50 [nM]	SMILES
330	CN1CCC(N(C)C(=O)c2ccn3c2Cc2c([nH]c4ccccc24)C3c2ccc3c(c2)OCO3)CC1 (stereo not drawn) [Example 16]
190	CCOC(=O)c1c(C(=O)OCC)c(C(C)C)n2c1Cc1c([nH]c3ccccc13)C2c1ccc2c(c1)OCO2 (stereo not drawn) [Example 15]
50	CCc1cc(C(=O)NCc2ccccn2)c2n1C(c1ccc3c(c1)OCO3)c1[nH]c3ccccc3c1C2 (stereo not drawn) [Example 53]
10	CCOC(=O)c1c(C(=O)OCC)c2n(c1CC)C(c1ccc3c(c1)OCO3)c1[nH]c3ccccc3c1C2 (stereo not drawn) [Example 12]
10	CCOC(=O)c1cc(CO)n2c1Cc1c([nH]c3ccccc13)C2c1ccc2c(c1)OCO2 (stereo not drawn) [Example 18]
5.8	O=C(NCC1CCCO1)c1ccn2c1Cc1c([nH]c3ccccc13)C2c1ccc2c(c1)OCO2 (stereo not drawn) [Example 14]
3.7	O=C(NCc1ccccn1)c1ccn2c1Cc1c([nH]c3ccccc13)C2c1ccc2c(c1)OCO2 (stereo not drawn) [Example 28]
3.6	N#Cc1ccn2c1Cc1c([nH]c3ccccc13)C2c1ccc2c(c1)OCO2 (stereo not drawn) [Example 27]
3	O=C(O)C1CCN(C(=O)c2ccn3c2Cc2c([nH]c4ccccc24)C3c2ccc3c(c2)OCO3)CC1 (stereo not drawn) [Example 22]
1.2	CCOC(=O)c1cn2c(c1C(=O)OCC)Cc1c([nH]c3ccccc13)C2c1ccc2c(c1)OCO2 (stereo not drawn) [Example 21]
